Like-named read-outs stand apart in the source and are kept apart here.
Assays:
[1] = system: OsACC; assay: Saturated de novo mutagenesis of OsACC CT domain in rice protoplasts, 20 sgRNAs; assay type: cell-based
Excerpt: To test the ability of STEME to achieve saturated de novo mutagenesis in rice protoplasts, it has been taken acetyl-coenzyme A carboxylase (OsACC) as an example. ACC is a key enzyme in lipid biosynthesis and its carboxyltransferase (CT) domain is the target of herbicides (FIG. 5 b). Amino acid substitutions in the CT domain can confer herbicides resistance on grass. 20 sgRNAs has been designed, including 11 sgRNAs with forward direction NGD-3′ PAMs and 9 with reverse complement 5′-HCN (H=A, T or C) PAMs spanning a 168 bp DNA sequence that encodes 56 amino acids of the CT domain (FIG. 5b). Using STEME-NG, the sgRNAs covered 90.32% of the cytosines, 40.43% of the adenines, 77.78% of the guanines, and 38.89% of the thymines in the editing windows, corresponding in all to 61.31% of the bases of the coding strand. These sgRNAs has been co-transfected individually together with STEME-NG into rice protoplasts. A3A-PBE-NG and pCas9-NG served as controls. […] No base conversions were detected in the untreated control.
We also analyzed the amino acid substitutions generated by STEME-NG in the targeted 56 amino acids. […] Of these, twenty-four, twelve, and five amino acids had one, two, and three kinds of amino acids substitution, respectively. […] Similarly, A3A-PBE-NG mutated 33 amino acids, of which twenty-six, six, and one contained one, two, and three kinds of amino acids substitution, respectively. […] Thus, it promises to be a powerful tool for directed evolution of endogenous genes by saturated de novo mutagenesis in situ.
We used the Japonica rice variety Nipponbare to prepare protoplasts. Protoplast isolation and transformation were performed as described (Shan, Q. et al. Rapid and efficient gene modification in rice and Brachypodium using TALENs. Mol. Plant 6, 1365-1368 (2013).). 10 μg each of nuclease and sgRNA plasmid DNA were introduced into the protoplasts by PEG-mediated transfection, with a mean transformation efficiency of 40-55% as measured by hemocytometer. The transfected protoplasts were incubated at 23° C. and 60 h post-transfection they were collected and genomic DNA extracted for amplicon deep sequencing.
DNA extraction. The genomic DNA of protoplasts was extracted with a DNA-Quick Plant System (Tiangen Biotech, Beijing, China). Genomic DNA of regenerated rice seedlings was extracted with CTAB, and all the seedlings in each group were sampled together. The targeted site was amplified with specific primers, and the amplicons were purified with an EasyPure PCR Purification Kit (TransGen Biotech, Beijing, China), and quantified with a NanoDrop™ 2000 Spectrophotometer (Thermo Fisher Scientific, Waltham, MA, USA).

[2] = system: rice seedlings with OsACC mutations
Excerpt: The herbicide was applied with pressurized equipment at 0.2 MPa and a spray volume of 450 L/ha. Three weeks later, surviving seedlings were identified.

Molecule	amino acids with one kind of amino acid substitution [1]	amino acids with three kinds of amino acid substitution [1]	amino acids with two kinds of amino acid substitution [1]	A>G or T>C substitutions ([1]; coding strand)	Cs converted to Ts in the covered bases ([1]; coding strand)	Gs converted to As in the covered bases ([1]; coding strand)	amino acids substituted ([1]; of the targeted 56 amino acids, silent, missense, nonsense)	indels ([1]; rice protoplasts, 20 sgRNAs)	herbicide resistance of seedlings ([2]; Group 2 seedlings, S1866F heterozygotes)	herbicide resistance of seedlings ([2]; Group 3 seedlings, A1884P heterozygotes)	herbicide resistance of seedlings ([2]; Group 6 seedlings carrying P1927F, spray 34 g active ingredient ha-1, three weeks)	herbicide resistance of seedlings ([2]; Group 20 seedlings carrying W2125C, spray 34 g active ingredient ha-1, three weeks)
A3A-PBE-NG: A3A-PBE with nCas9-NG (D10A); protein SEQ ID NO: 186	twenty-six	one	six	no A>G or T>C substitutions were found	89.29%	92.86%	33	< 0.01%				
CC(Oc1ccc(Oc2ncc(C(F)(F)F)cc2Cl)cc1)C(=O)O (stereo not drawn) [haloxyfop]									slightly weaker haloxyfop resistance	slightly weaker haloxyfop resistance	clearly herbicide resistant	clearly herbicide resistant

From US12612622B2, “Targeted mutagenesis using base editors” (Qi Biodesign Biotechnology Company Limited, priority 2018, dated 2026)
